Converted amounts (≈) assume the structure as drawn. Read-outs that look alike come from different tables or passages of the source.
Tests used:
[1] = test system: Enterococcus faecalis ATCC 29212; assay: MIC range and interpretive result on gram-positive reference strain; type: cell-based; conditions: for Interpretive result: MIC range against breakpoints LB + UB; for MIC range: data validated by MERLIN Diagnostika GmbH
Experimental: (§1) Determining the susceptibility with the microtiter plate 1 depends on the rehydration of antibiotics by the addition of a standardised bacterial suspension. The result is measured after 18-24 hours incubation at 35-37° C. photometrically with MICRONAUT Skan or another suitable photometer and analysed with MICRONAUT Software or visually read and interpreted.
(§2) Test Procedure 1. Gram Preparation: • Gram-positive bacteria appear blue, gram-negative bacteria red. It is recomended that the gram stain is determined according to standard protocol or the recommendations on the manufacturer's kit. 2. Inoculum Production • Prepare a test tube with 5 ml NaCl 0.9% pH 5.5 to 6.5. • Remove several individually located colonies of a pure culture which is 18-24 hours old from the blood agar (without additives). • Homogenise the colonies well in 5 ml NaCl 0.9% until the turbidity corresponds to a McFarland of 0.5. 3. Inoculation in Broth • 3.1 Mueller-Hinton broth or modified ISO-Sensitest broth. • For gram-negative bacteria, 50 μl of the bacterial suspension is pipetted into 11 ml Mueller-Hinton II broth or modified ISO-Sensitest broth and well homogenised. • For gram-positive bacteria, 100 μl of the bacterial suspension is pipetted into 11 ml Mueller-Hinton II broth or modified ISO-Sensitest broth and well homogenised. • 3.2H-Broth • For fastidious bacteria, 200 μl of the bacterial suspension is transferred into 11 ml preheated H-Broth and homogenised. 4. Inoculation (Broth-Microdilution) • Remove microtiter plate from the individual packaging max. 30 minutes before inoculation and dispose of the dessicant. • Label test plate. • Dispense the prepared suspension according to the plate layout into a 2-channel reservoir. • The inoculation of the microtiter plate is carried out manually with a multi-channel pipette, 100 μl per well. 5. Sealing and Incubation • 5.1 Mueller-Hinton II broth or modified ISO-Sensitest broth • After inoculating seal the test plates with an unperforated adhesive film or cover with an unused microtiter plate (max. 5 test plates stacked). • Incubate test plate 18-24 hours at 35-37° C. • 5.2H-Broth • After inoculating the test plates cover with an unused microtiter plate or with a perforated cover film. • Incubate test plate 22 to 24 hours at 35 to 37° C. in the incubator with CO2 gassing. 6. Reading • Remove adhesive film. • Wipe test plate from below. • Reading of test plate with photometer or visually. 7. Analysis • The bacterial growth is determined using a photometric measurement at a wave length of 620 nm or 690 nm—according to the broth used. • The result is analysed, interpreted and checked for its plausibility by means of MICRONAUT Software. The growth control must be overgrown (turbid), otherwise the test must be repeated. With visual readout the results should be recorded on a plate layout plan. The test result can be seen on the screen or on the findings report. 8. Interpretation of the Results
(§3) Breakpoint Interpretation • For antibiotics which are tested in four or fewer consecutive concentrations or in non-consecutive concentrations, interpreting categories are determined, namely susceptible, intermediate and resistant, on the basis of low and upper breakpoint MIC values (See attachment: Tables IIA and IIB, Tables IIIA, IIIB, IIIC and IIID and Table IV). The lower breakpoint (LB) is represented by the MIC value which prevents sufficient and visible bacterial growth, ie the bacterial isolate is susceptible to the antibiotic. […] Using MICRONAUT Software, MIC values can be automatically analysed and interpreted for a given bacterial isolate and antibiotic. […]

[2] = test system: Escherichia coli ATCC 25922; assay: MIC range and interpretive result on gram-negative reference strain; type: cell-based; conditions: for Interpretive result: MIC range against breakpoints LB + UB; for MIC range: data validated by MERLIN Diagnostika GmbH
Experimental: as §1, §2, §3

[3] = test system: Enterococcus faecalis ATCC 29212; conditions: taken from NCCLS, M31-A2, 2002; cited from earlier work
[4] = test system: Escherichia coli ATCC 25922; conditions: taken from NCCLS, M31-A2, 2002; cited from earlier work
[5] = test system: Staphylococcus aureus ATCC 29213; assay: MIC range and interpretive result on gram-positive reference strain; type: cell-based; conditions: for Interpretive result: MIC range against breakpoints LB + UB; for MIC range: data validated by MERLIN Diagnostika GmbH
Experimental: as §1, §2, §3

[6] = test system: Pseudomonas aeruginosa ATCC 27853; assay: MIC range and interpretive result on gram-negative reference strain; type: cell-based; conditions: for Interpretive result: MIC range against breakpoints LB + UB; for MIC range: data validated by MERLIN Diagnostika GmbH
Experimental: as §1, §2, §3

[7] = test system: Staphylococcus aureus ATCC 29213; conditions: taken from NCCLS, M31-A2, 2002; cited from earlier work
[8] = test system: Pseudomonas aeruginosa ATCC 27853; conditions: taken from NCCLS, M31-A2, 2002; cited from earlier work
[9] = test system: S.E. Sm24/Rif12/Ssq (vaccine strain); assay: Broth microdilution MIC, resistance marker discrimination, vaccine strain S.E. Sm24/Rif12/Ssq; type: cell-based, Salmonella Enteritidis; conditions: chicken, validated at Lohmann Animal Health
Experimental: as §1
(§4) Test Procedure 1. Gram Preparation: • Gram-positive bacteria appear blue, gram-negative bacteria red. It is recomended that the gram stain is determined according to standard protocol or the recommendations on the manufacturer's kit. 2. Inoculum Production • Prepare a test tube with 5 ml NaCl 0.9% pH 5.5 to 6.5. • Remove several individually located colonies of a pure culture which is 18-24 hours old from the blood agar (without additives). • Homogenise the colonies well in 5 ml NaCl 0.9% until the turbidity corresponds to a McFarland of 0.5. 3. […] Reading • Remove adhesive film. • Wipe test plate from below. • Reading of test plate with photometer or visually. […] Analysis • The bacterial growth is determined using a photometric measurement at a wave length of 620 nm or 690 nm—according to the broth used. • The result is analysed, interpreted and checked for its plausibility by means of MICRONAUT Software. […] With visual readout the results should be recorded on a plate layout plan. […]
as §3, with “IV).” for “IV). The lower breakpoint (LB) is represented by the MIC value which prevents sufficient and visible bacterial growth, ie the bacterial isolate is susceptible to the antibiotic.”

[10] = test system: S.E. Leipzig (field strain); assay: Broth microdilution MIC, resistance marker discrimination, field strain S.E. Leipzig; type: cell-based, Salmonella Enteritidis; conditions: chicken, validated at Lohmann Animal Health
Experimental: as §1, §4
as §3, with “IV).” for “IV). The lower breakpoint (LB) is represented by the MIC value which prevents sufficient and visible bacterial growth, ie the bacterial isolate is susceptible to the antibiotic.”

[11] = test system: S.Tm. Nal2/Rif9/Rtt (vaccine strain); assay: Broth microdilution MIC, resistance marker discrimination, vaccine strain S.Tm. Nal2/Rif9/Rtt; type: cell-based, Salmonella Typhimurium; conditions: chicken, validated at Lohmann Animal Health
Experimental: as §1
as §4, with “2.” for “2. Inoculum Production • Prepare a test tube with 5 ml NaCl 0.9% pH 5.5 to 6.5. • Remove several individually located colonies of a pure culture which is 18-24 hours old from the blood agar (without additives). • Homogenise the colonies well in 5 ml NaCl 0.9% until the turbidity corresponds to a McFarland of 0.5. 3.”
(§5) Breakpoint Interpretation • For antibiotics which are tested in four or fewer consecutive concentrations or in non-consecutive concentrations, interpreting categories are determined, namely susceptible, intermediate and resistant, on the basis of low and upper breakpoint MIC values (See attachment: Tables IIA and IIB, Tables IIIA, IIIB, IIIC and IIID and Table IV). […]

[12] = test system: S.Tm. Moskau 415 (field strain); assay: Broth microdilution MIC, resistance marker discrimination, field strain S.Tm. Moskau 415; type: cell-based, Salmonella Typhimurium; conditions: chicken, validated at Lohmann Animal Health
Experimental: as §1
as §4, with “2.” for “2. Inoculum Production • Prepare a test tube with 5 ml NaCl 0.9% pH 5.5 to 6.5. • Remove several individually located colonies of a pure culture which is 18-24 hours old from the blood agar (without additives). • Homogenise the colonies well in 5 ml NaCl 0.9% until the turbidity corresponds to a McFarland of 0.5. 3.”
as §5

CC1(C)S[C@@H]2[C@H](NC(=O)[C@H](N)c3ccccc3)C(=O)N2[C@H]1C(=O)O [Ampicillin]
Interpretive result [1]: S | Interpretive result [2]: S | MIC range [3]: 0.5 to 2 µg/mL | MIC range [4]: 2 to 8 µg/mL

CO/N=C(\C(=O)N[C@@H]1C(=O)N2C(C(=O)O)=C(CSC(=O)c3ccco3)CS[C@H]12)c1csc(N)n1 [Ceftiofur]
Interpretive result [5]: S | Interpretive result [2]: S | Interpretive result [6]: R | MIC range [7]: 0.25 to 1 µg/mL | MIC range [4]: 0.25 to 1 µg/mL | MIC range [8]: 16 to 64 µg/mL

CCN1CCN(c2cc3c(cc2F)c(=O)c(C(=O)O)cn3C2CC2)CC1 [Enrofloxacin]
Interpretive result [1]: S/I | Interpretive result [5]: S | Interpretive result [2]: S | Interpretive result [6]: I/R | MIC range [7]: 0.03 to 0.12 µg/mL | MIC range [3]: 0.12 to 1 µg/mL | MIC range [4]: 0.008 to 0.03 µg/mL | MIC range [8]: 1 to 4 µg/mL

CC[C@H]1OC(=O)[C@H](C)[C@@H](O[C@H]2C[C@@](C)(OC)[C@@H](O)[C@H](C)O2)[C@H](C)[C@@H](O[C@@H]2O[C@H](C)C[C@H](N(C)C)[C@H]2O)[C@](C)(O)C[C@@H](C)C(=O)[C@H](C)[C@@H](O)[C@]1(C)O [Erythromycin]
MIC range [9]: ≦5 μg/ml | MIC range [10]: ≧20 μg/ml | MIC range [11]: ≦5 μg/ml | MIC range [12]: ≧20 μg/ml | Interpretive result [1]: I | Interpretive result [5]: S/I | MIC range [7]: 0.12 to 1 µg/mL | MIC range [3]: 1 to 4 µg/mL

CCC[C@@H]1C[C@@H](C(=O)N[C@@H]([C@H]2O[C@H](SC)[C@H](O)[C@@H](O)[C@H]2O)[C@@H](C)O)N(C)C1 [Lincomycin]
Interpretive result [1]: R | MIC range [1]: 8 to 32 µg/mL | Interpretive result [5]: S/I | MIC range [5]: 0.5 to 2 µg/mL | Interpretive result [6]: R | MIC range [6]: 32 µg/mL (≈ 78.7 µM)

Cc1onc(-c2ccccc2)c1C(=O)N[C@@H]1C(=O)N2[C@@H]1SC(C)(C)[C@@H]2C(=O)O [Oxacillin]
Interpretive result [1]: R | Interpretive result [5]: S | MIC range [7]: 0.12 to 0.5 µg/mL | MIC range [3]: 8 to 32 µg/mL

CC1(C)S[C@@H]2[C@H](NC(=O)Cc3ccccc3)C(=O)N2[C@H]1C(=O)O [Penicillin G]
Interpretive result [1]: S | Interpretive result [5]: R | MIC range [7]: 0.25 to 2 µg/mL | MIC range [3]: 1 to 4 µg/mL

CO[C@H]1/C=C/O[C@@]2(C)Oc3c(C)c(O)c4c(O)c(c(/C=N/N5CCN(C)CC5)c(O)c4c3C2=O)NC(=O)/C(C)=C\C=C\[C@H](C)[C@H](O)[C@@H](C)[C@@H](O)[C@@H](C)[C@H](OC(C)=O)[C@@H]1C [Rifampicin]
MIC range [9]: >50 µg/mL | MIC range [10]: <50 µg/mL | MIC range [11]: >50 µg/mL | MIC range [12]: <50 µg/mL

CN[C@@H]1[C@H](O)[C@H](NC)[C@H]2O[C@@]3(O)C(=O)C[C@@H](C)O[C@H]3O[C@@H]2[C@H]1O [Spectinomycin]
Interpretive result [1]: R | Interpretive result [5]: R | Interpretive result [2]: S/R | MIC range [7]: 64 to 256 µg/mL | MIC range [3]: 64 to 256 µg/mL | MIC range [4]: 8 to 64 µg/mL

[H]/N=C(/N)N[C@H]1[C@H](O)[C@@H](O)[C@H](O[C@@H]2O[C@@H](C)[C@](O)(C=O)[C@H]2O[C@@H]2O[C@@H](CO)[C@H](O)[C@@H](O)[C@@H]2NC)[C@@H](N/C(N)=N\[H])[C@@H]1O [Streptomycin]
MIC range [9]: >200 µg/mL | MIC range [10]: <200 µg/mL

CN(C)[C@@H]1C(O)=C(C(N)=O)C(=O)[C@@]2(O)C(O)=C3C(=O)c4c(O)cccc4[C@@](C)(O)[C@H]3C[C@@H]12 [Tetracycline]
Interpretive result [1]: I/R | Interpretive result [5]: S | Interpretive result [2]: S | Interpretive result [6]: R

C=C[C@]1(C)C[C@@H](OC(=O)CSCCN(CC)CC)[C@]2(C)[C@H](C)CC[C@]3(CCC(=O)[C@H]32)[C@@H](C)[C@@H]1O [Tiamulin]
Interpretive result [5]: S | MIC range [7]: 0.5 to 2.0 µg/mL

Colistin
Interpretive result [5]: R | MIC range [5]: 64 µg/mL | Interpretive result [2]: S | MIC range [2]: ≦0.5 μg/ml | Interpretive result [6]: S/I | MIC range [6]: 0.5 to 2 µg/mL

Gentamicin
Interpretive result [1]: S/I/R | Interpretive result [5]: S | Interpretive result [2]: S | Interpretive result [6]: S | MIC range [7]: 0.12 to 1 µg/mL | MIC range [3]: 4 to 16 µg/mL | MIC range [4]: 0.25 to 1 µg/mL | MIC range [8]: 0.5 to 2 µg/mL

Neomycin
Interpretive result [1]: R | MIC range [1]: 16 to 64 µg/mL | Interpretive result [5]: S | MIC range [5]: 0.5 to 2 µg/mL | Interpretive result [2]: S | MIC range [2]: 0.5 to 2 µg/mL

Reference: patent US7642088B2, “Device for susceptibility testing of bacterial pathogens and vaccine strains in poultry” (Lohmann Animal Health GmbH & Co. KG, priority 2004, dated 2010)
